From ChEMBL document CHEMBL5608141, “Identification of compartment-specific drug sensitivities in CRC organoid-stroma co-cultures” (2024)

Tests used:
Format in all cases: functional, Homo sapiens
Parameters in all cases: dose or concentration left out as unconfirmed
Colon cancer organoid [1] = assay: Identification of compartment-specific drug sensitivities in O20 CRC organoid-stroma F20 CAF co-cultures. Organoid is transduced with Lucferase2-P2A-EGFP lentivirus, fibroblast with Renilla-dsRed lentivirus. Dual-Glo Luciferase assay is used to report viability data.
Colon cancer organoid [2] = assay: Identification of compartment-specific drug sensitivities in O06 CRC organoid-stroma F06 CAF co-cultures. Organoid is transduced with Lucferase2-P2A-EGFP lentivirus, fibroblast with Renilla-dsRed lentivirus. Dual-Glo Luciferase assay is used to report viability data.
Colon cancer organoid [3] = assay: Identification of compartment-specific drug sensitivities in O14 CRC organoid-stroma F14 CAF co-cultures. Organoid is transduced with Lucferase2-P2A-EGFP lentivirus, fibroblast with Renilla-dsRed lentivirus. Dual-Glo Luciferase assay is used to report viability data.
[4] = Transduced with Lucferase2-P2A-EGFP lentivirus
[5] = Transduced with Renilla-dsRed lentivirus

Row | SMILES | Cell Viability (Colon cancer organoid [1]; [4]) [%] | Cell Viability (Colon cancer organoid [1]; [5]) [%] | Cell Viability (Colon cancer organoid [2]; [4]) [%] | Cell Viability (Colon cancer organoid [2]; [5]) [%] | Cell Viability (Colon cancer organoid [3]; [4]) [%] | Cell Viability (Colon cancer organoid [3]; [5]) [%]
1 | Nc1ccc(C(=O)Nc2cccc(-c3nc(N4CCOCC4)c4oc5ncccc5c4n3)c2)cn1 | 141.773 | 75.1771 | 78.745 | 81.5262 | 65.9749 | 77.6378
2 | COc1cc(Nc2nc(C)cc(-c3cnn4nc(OC)ccc34)n2)cc(C(F)(F)F)c1 | 136.021 | 99.6244 | 17.5131 | 98.9895 | 120.94 | 74.993
3 | COc1cc(N(C)c2ccnc3ccc(C(F)(F)F)cc23)cc(OC)c1OC | 76.7382 | 110.267 | 62.3452 | 117.147 | 95.9474 | 95.4836
4 | Cn1cc(CNCC2CCN(c3ncc(C(=O)NO)cn3)CC2)c2ccccc21 [QUISINOSTAT] | 1.348 | 37.1921 | 1.095 | 190.694 | 6.037 | 54.4916
5 | CC(C)(O)[C@H](F)CN1Cc2cc(NC(=O)c3cnn4cccnc34)c(N3CCOCC3)cc2C1=O | 123.644 | 88.3121 | 120.796 | 89.8431 | 105.194 | 83.4987
6 | CC(=O)Nc1c(F)cc(C(=O)N[C@H]2CC[C@H](O)CC2)cc1O[C@@H](C)c1ccccc1 [GSK046] | 118.485 | 118.66 | 141.493 | 157.689 | 96.2623 | 124.481
7 | Cc1ccc(NC(=O)Nc2cc(C(F)(F)F)ccc2F)cc1Nc1ccc2c(c1)NC(=O)/C2=C\c1ccc[nH]1 | 98.8429 | 67.3177 | 46.1941 | 95.0963 | 123.441 | 77.7474
8 | O=C(Nc1nc2cccc(-c3ccc(CN4CCS(=O)(=O)CC4)cc3)n2n1)C1CC1 [FILGOTINIB] | 113.419 | 86.0918 | 100.525 | 92.8016 | 113.804 | 94.0881
9 | Cc1c(Nc2ccc(S(=O)(=O)N3CCN(C)CC3)cc2F)nc2ccc(Nc3cnn(C4CC4)c3)cn2c1=O | 118.006 | 135.679 | 81.8172 | 120.859 | 108.37 | 91.7144
10 | CCC(F)(F)c1cc(N2CCC(S(C)(=O)=O)CC2)nc2sc(C(N)=O)c(N)c12 [BI-605906] | 180.529 | 81.0914 | 93.6384 | 92.3898 | 95.5116 | 75.9837
11 | COc1cc2c(cc1-c1c(C)noc1C)ncc1[nH]c(=O)n([C@H](C)c3ccccn3)c12 | 26.1265 | 172.215 | 43.5488 | 325.273 | 55.7493 | 184.963
12 | CC1=CC(C)=[N+]2C1=C(CCCCc1cn(CC(=O)N3CCc4nc(NC(=O)[C@H]5CCN(C#N)C5)sc4C3)nn1)c1c(C)cc(C)n1[B-]2(F)F | 77.3724 | 101.216 | 125.029 | 111.523 | 84.8013 | 97.3387
13 | CN(C)C(=O)c1sc2nc(N3CCC(S(C)(=O)=O)CC3)cc(C(F)(F)F)c2c1N [BI-5026] | 83.1119 | 112.021 | 108.851 | 103.89 | 89.1429 | 109.835
14 | CNC(=O)c1cc(C(=O)NC2CC2)cn(Cc2ccccc2)c1=O [GSK620] | 93.0444 | 100.747 | 111.223 | 132.009 | 84.0371 | 91.229
15 | C[C@@H]1CCNC(=O)c2cc3ccc(C(=O)Nc4nc5ccccc5n4CCCN(C)C)cc3n21 | 65.8011 | 147.158 | 65.6776 | 63.6239 | 75.4357 | 82.3994
16 | CN(C(=O)c1ccccc1)c1cc(N(C)c2ccc3c(c2)CCc2ccc(C(=O)NCCN4CCOCC4)cc2C3=O)ccc1F [FM-743] | 87.6379 | 153.202 | 67.0526 | 69.6878 | 122.056 | 99.7372
17 | C=CC(=O)Nc1ccc2[nH]c(=O)n(C3CCN(Cc4ccc(-c5nc6cc[nH]c(=O)c6cc5-c5ccccc5)cc4)CC3)c2c1 [Borussertib] | 47.6492 | 149.193 | 51.8578 | 132.383 | 60.6786 | 71.4907
18 | CC(C)C(=O)Nc1n[nH]c2cc(-c3cccc(NS(=O)(=O)C4CC4)c3)ccc12 | 85.5363 | 102.387 | 78.2505 | 111.722 | 122.353 | 104.553
